Here are results for 23 compounds from the supplement of paper PMC7021759.

For this assay, the system named is SK-N-MM (SKNMM-MYCN, doxycycline-inducible MYCN). Briefly: area under dose-response curve (CellTiter-Glo viability normalised to plate controls) (AUC (arbitrary units)); higher = more loss of viability; extreme values may be limits of the assay. The method, boiled down:
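SK-N-MM cells carrying doxycycline-inducible MYCN were seeded in 96-well plates at 1250 cells/100 μL, and about 24 h later they received medium with or without doxycycline. Two days after that, 10-point 1:3 dilution series of compounds were added by pin transfer (890-fold dilution of stock), with a second dose on day 4. CellTiter-Glo luminescence was measured 3 or 8 days after drugging. Log2 signals were scaled against the positive and negative controls on each plate and used to calculate the area under the dose-response curve.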
Background: ATP-based viability assays read luminescence as a measure of living cells.

Where [1] appears, read: MYCN induction (doxycycline): +doxycycline (MYCN induced), time after drugging: 3 days.
The mark [2] stands for this setting: MYCN induction (doxycycline): +doxycycline (MYCN induced), time after drugging: 8 days.
Where [3] appears, read: MYCN induction (doxycycline): no doxycycline (MYCN not induced), time after drugging: 3 days.
Where [4] appears, read: MYCN induction (doxycycline): no doxycycline (MYCN not induced), time after drugging: 8 days.

SMILES strings stand for the structures. ± gives the standard deviation of the averaged measurements.

In the case of `Nc1nc(=O)n([C@H]2C[C@H](O)[C@@H](CO)O2)cc1F` [5-FLUORODEOXYCYTIDINE], the “area under dose-response curve” value is, setting by setting: under setting [1], 23.7; under setting [2], 184; under setting [3], 9.38; under setting [4], 58.5.
For `COc1cc2nccc(Oc3ccc(NC(=O)C4(C(=O)Nc5ccc(F)cc5)CC4)cc3)c2cc1OC` [CABOZANTINIB], in that order: 0, 0, 0 and 0.
Take `N#CCNC(=O)c1ccc(-c2ccnc(Nc3ccc(N4CCOCC4)cc3)n2)cc1`: the “area under dose-response curve” value was found to be 40.7 under setting [1], 79.9 under setting [2], 0 under setting [3] and 42 under setting [4].
`CN(C)CCCNC(=O)c1ccc(-c2cc(O)c3ncccc3c2)cc1` [ML324]: the “area under dose-response curve” value runs as follows: under setting [1], 16.5; under setting [2], 109; under setting [3], 4.85; under setting [4], 68.6.
Taken in the same sequence, the figures for `O=c1[nH]c(=O)n([C@H]2C[C@H](O)[C@@H](CO)O2)cc1/C=C/Br` [BRIVUDINE] were 0.716, 11.1, 0 and 0.883.
Turning to `CCN(CC)CCCC(C)Nc1c2ccc(Cl)cc2nc2ccc(OC)cc12` (centres undefined) [QUINACRINE], the “area under dose-response curve” value by setting is: under setting [1], 2.07; under setting [2], 146; under setting [3], 0; under setting [4], 149.
`O=P1(NCCCl)OCCCN1CCCl` (centres undefined) [IFOSFAMIDE]: the “area under dose-response curve” value under setting [1] came to 0, the “area under dose-response curve” value under setting [2] was 0 and the “area under dose-response curve” value under setting [3] was determined as 0.
For the compound `CC[C@]1(O)C[C@H]2CN(CCc3c([nH]c4ccccc34)[C@@](C(=O)OC)(c3cc4c(cc3OC)N(C=O)[C@H]3[C@@](O)(C(=O)OC)[C@H](OC(C)=O)[C@]5(CC)C=CCN6CC[C@]43[C@@H]65)C2)C1` [VINCRISTINE], the “area under dose-response curve” value under setting [1] was found to be 185, the “area under dose-response curve” value under setting [2] stood at 253, the “area under dose-response curve” value under setting [3] is 89.2 and the “area under dose-response curve” value under setting [4] stood at 146.
For `CCOC(=O)CCNc1cc(N2CCc3ccccc3CC2)nc(-c2ccccn2)n1` [GSK-J4], in that order: 0.00103, 188, 61.4 and 150.
Take `COc1cc(Nc2ncc3c(n2)-c2ccc(Cl)cc2C(c2c(F)cccc2OC)=NC3)ccc1C(=O)O` [ALISERTIB]: the “area under dose-response curve” value by setting is: under setting [1], 51.1 ± 1.1; under setting [2], 126 ± 21; under setting [3], 15.2 ± 0.59; under setting [4], 69.4 ± 30.
As to `C[C@@H]1O[C@@H](O[C@H]2C[C@@H](O)[C@]3(CO)[C@H]4[C@H](O)C[C@]5(C)[C@@H](C6=CC(=O)OC6)CC[C@]5(O)[C@@H]4CC[C@]3(O)C2)[C@H](O)[C@H](O)[C@H]1O` [OUABAIN], the “area under dose-response curve” value runs as follows: under setting [1], 178; under setting [2], 280; under setting [3], 173; under setting [4], 275.
Taken in the same sequence, the figures for `CO[C@H]1C[C@@H]2CC[C@@H](C)[C@@](O)(O2)C(=O)C(=O)N2CCCC[C@H]2C(=O)O[C@H]([C@H](C)C[C@@H]2CC[C@@H](OCCO)[C@H](OC)C2)CC(=O)[C@H](C)/C=C(\C)[C@@H](O)[C@@H](OC)C(=O)[C@H](C)C[C@H](C)/C=C/C=C/C=C/1C` [EVEROLIMUS] were 19.6, 0, 37.3 and 21.4.
As to `CC(/C=C/C(=O)NO)=C\[C@@H](C)C(=O)c1ccc(N(C)C)cc1` [TRICHOSTATIN A], the “area under dose-response curve” value turned out to be 159 under setting [1], 310 under setting [2], 124 under setting [3] and 282 under setting [4].
Taken in the same sequence, the figures for `C=C1C[C@@H]2CC[C@@]34C[C@H]5O[C@H]6[C@@H](O3)[C@H]3O[C@H](CC[C@@H]3O[C@H]6[C@H]5O4)CC(=O)C[C@@H]3[C@@H](OC)[C@@H](C[C@H](O)CN)O[C@H]3C[C@H]3O[C@@H](CC[C@@H]1O2)C[C@@H](C)C3=C` [ERIBULIN] were 0, 0.398, 0 and 52.7.
As for `CCN1CCN(Cc2ccc(Nc3ncc(F)c(-c4cc(F)c5nc(C)n(C(C)C)c5c4)n3)nc2)CC1` [ABEMACICLIB], the “area under dose-response curve” value under setting [4] was found to be 14.4.
As for `CO[C@H]1C[C@@H]2CC[C@@H](C)[C@@](O)(O2)C(=O)C(=O)N2CCCC[C@H]2C(=O)O[C@H]([C@H](C)C[C@@H]2CC[C@@H](OC(=O)C(C)(CO)CO)[C@H](OC)C2)CC(=O)[C@H](C)/C=C(\C)[C@@H](O)[C@@H](OC)C(=O)[C@H](C)C[C@H](C)/C=C/C=C/C=C/1C` [TEMSIROLIMUS], the “area under dose-response curve” value runs as follows: under setting [1], 8.87 ± 0.32; under setting [4], 43.4.
For the compound `Cc1cnc(CNC(=O)c2c(=O)c3ccc(N4CCCN(C)CC4)nc3n3c2sc2ccccc23)cn1` [CX-5461], the “area under dose-response curve” value came out at 11.3 under setting [2] and 11.7 under setting [3].
With `COc1cc2c(NC3CCN(C(C)C)CC3)nc(N3CCC(F)(F)CC3)nc2cc1OCCCN1CCCC1` [UNC0642], the “area under dose-response curve” value under setting [1] came to 0, the “area under dose-response curve” value under setting [2] was 203, the “area under dose-response curve” value under setting [3] worked out at 1.33 and the “area under dose-response curve” value under setting [4] came to 145.
In the case of `CC[C@]1(O)C[C@@H]2CN(CCc3c([nH]c4ccccc34)[C@@](C(=O)OC)(c3cc4c(cc3OC)N(C)[C@H]3[C@@](O)(C(=O)OC)[C@H](OC(C)=O)[C@]5(CC)C=CCN6CC[C@]43[C@@H]65)C2)C1` [VINBLASTINE], the “area under dose-response curve” value reads like this: under setting [1], 190; under setting [2], 284; under setting [3], 98.1; under setting [4], 177.
For `CC(C)C[C@H](NC(=O)[C@H](Cc1ccccc1)NC(=O)c1cnccn1)B(O)O` [BORTEZOMIB], in that order: 264, 382, 245 and 374.
Taken in the same sequence, the figures for `Cn1c(=O)n(-c2ccc(C(C)(C)C#N)cc2)c2c3cc(-c4cnc5ccccc5c4)ccc3ncc21` [DACTOLISIB] were 73.9, 132, 62.3 and 96.3.
In the case of `CN(C)C(=O)c1cc2cnc(Nc3ccc(N4CCNCC4)cn3)nc2n1C1CCCC1` [RIBOCICLIB], the “area under dose-response curve” value was 7.07e-05 under setting [1], 12.9 under setting [2], 0 under setting [3] and 15.9 under setting [4].
Taken in the same sequence, the figures for `CCOc1cc2ncc(C#N)c(Nc3ccc(OCc4ccccn4)c(Cl)c3)c2cc1NC(=O)/C=C/CN(C)C` [NERATINIB] were 106, 154, 98.3 and 151.
